Test results from patent US20240294478A1, “ANTI-CANCER COMPOUNDS AND METHODS OF USE” (YALE UNIVERSITY, priority 2021, published 2024).

What was measured:
[1] = system: DNA repair foci in LN229 MGMT+/−, MMR+/− cells; test: Immunofluorescence foci assays (γH2AX, 53BP1, pRPA); format: cell-based, human; details: 20 μM, 2 to 48 h
Experimental: FIGS. 5A-5K: KL-50 activates DNA damage response pathways and cycle arrest in MGMT-cells, independent of MMR, and induces sensitivity in cells deficient in ICL or HR repair. […] Columns, mean; error bars, SD; n 5 technical replicates. FIGS. 5D-5K: KL-50 induces activation of the ATR-CHK1 and ATM-CHK2 signaling axes and delayed DNA repair foci formation in MGMT-deficient cells, independent of MMR status. […] Treatment with 1 μM doxorubicin for 24 h (Doxo) served as a positive control for p-CHK1 activation. […] Points, mean % cells with >10 foci; error bars, SD; n >5 technical replicates. […] Points, % cells with 10 foci, n>250 cells per condition.
Immunofluorescence Foci Assays. High-throughput immunofluorescence foci assays were performed at the Yale Center for Molecular Discovery (YCMD). Cells were seeded at 2000 cells/well in black polystyrene flat bottom 384-well plates (Greiner Bio-One) and allowed to adhere overnight. Compound addition was performed utilizing a Labcyte Echo 550 liquid handler (Beckman Coulter), with 6 replicates per test condition and 12 replicates per control condition. Following drug incubation, cells were fixed and stained for phospho-SER139-H2AX (yH2AX), 53BP1, or phospho-SER33-RPA2 (pRPA) as follows. […]

[2] = system: LN229 MGMT+/−, MMR+/− isogenic lines; test: Short-term cell viability with ROS scavenger NAC; format: cell-based, human; details: increasing concentrations of NAC
Experimental: Columns, mean; error bars, SD; n=2 independent analyses. For (A) and (C), points, mean; error bars, SD; n=3 technical replicates.
Short-term Cell Viability Assay. Cells were seeded in 96-well plates at 1000 or 2000 cells/well and allowed to adhere at 23° C. for 60 min and then incubated overnight at 37° C. Cells were treated with indicated concentrations of compounds in triplicate for 4-6 days prior to fixation with 3.7% paraformaldehyde and nuclear staining with 1 μg/mL Hoechst 33342 dye. Cells were imaged on a Cytation 3 imaging reader (BioTek) and quantified using CellProfiler software. For in vitro short-term growth delay experiments, IC50 values were determined from the nonlinear regression equation, [inhibitor] vs normalized response with variable slope.

[3] = system: LN229 MGMT−/MMR+ and MGMT−/MMR− flank tumors; test: Flank tumor second study: regimens, schedules, routes; format: in vivo, mouse; details: 5, 15, 25 mg/kg; MWF x 3 weeks or M-F x 1 week; PO or IP
Text: FIGS. 9A-91: KL-50 is safe and efficacious on both MGMT−/MMR+ and MGMT−/MMR-flank tumors over a wide range of treatment regimens and conditions. […] (FIG. 9C) Mean body weight of mice during LN229 flank tumor experiments. (FIG. 9D) Kaplan-Meier analysis of LN229 MGMT−/MMR− xenograft flank tumor-bearing mice to determine survival rate based on death, removal from study if mouse body weight loss exceeded 20% of initial body weight, or if tumor volume exceeded 2000 mm^3. […] (FIGS. 9H-91) Xenograft LN229 MGMT−/MMR+ and LN229 MGMT−/MSH6—flank tumors with a larger average starting tumor size of −400 mm^3 and −350 mm^3 respectively, treated with 3 weekly cycles of P.O administration of 10% cyclodextrin (n=4) or KL-50 (n=4, 3 cycles of 25 mg/kg on Monday, Wednesday, and Friday). The study period was limited by control groups which had to be euthanized for exceeding the ethical maximum allowed tumor size, thus ending the study. In all panels, points, mean; error bars, SEM; *, P<0.05; **, P<0.01; ***, P<0.001; ****, P<0.0001; ns, not significant.
In a second study, mice were randomized and administered either KL-50 or vehicle (10% cyclodextrin) by oral gavage or intraperitoneal injection on either M-F x 1 or MWF×3 cycles at 5, 15, or 25 mgs/kg. Caliper measurements were obtained during the dosing period and at least two weeks following treatment. […]

SMILES	γH2AX, 53BP1, pRPA foci formation [1]	rescue of toxicity by ROS scavenger NAC [2]	efficacy and toxicity across regimens [3]
Cn1nnc2c(C(N)=O)ncn2c1=O [TMZ, 4-methyl-5-oxo-2,3,4,6,8-pentazabicyclo[4.3.0]nona-2,7,9-triene-9-carboxamide, reference compound]	induced a comparable response in MGMT-cells, but this was abolished in the absence of functional MMR		
NC(=O)c1ncn2c(=O)n(CCF)nnc12 [KL-50]	induced a maximal foci response at 48 h, specifically in MGMT-cells and irrespective of MMR status	did not result in rescue of KL-50 toxicity	effective and non-toxic
